{"source": "patent US12435310B2", "about": "“Expansion culture method for human-derived natural killer cells by using HDAC inhibitor” (KOREA UNIVERSITY RESEARCH AND BUSINESS FOUNDATION, priority 2018, dated 2025)", "key": {"[1]": {"test_system": "natural killer cells", "assay": "Cell proliferation by Ki67 staining, flow cytometry", "type": "cell-based, Human", "settings": "NK cells expanded 10 days, treated, further cultured 8 days (FIG. 3)", "method": "(§1) In the same manner as in Example 1, natural killer cells expanded ex vivo for 10 days were treated with an HDAC inhibitor and further cultured for 8 days. After harvesting the cells, 5×10^5 cells were obtained and apoptosis and proliferation thereof were measured using a flow cytometer.\n(§2) To measure apoptosis, cells were harvested and stained with annexin V (2.5 μl) and 7AAD (2 μl) for 15 minutes, and then the proportion of the cells stained with annexin V/7AAD was analyzed using FACS Cantoll (BD). To measure cell proliferation, PerCP-labeled CD3 mAb (Biolgend Cat No. 344814 clone SK7) and APC-labeled CD56 mAb (Biolegend Cat No. 362504 clone 5.1H11) were added to the cells and allowed to react at 4° C. for 20 minutes. For intracellular FACS, the cells were washed with FACS buffer, and analyzed by staining Ki67 in the cell nucleus with the eBioscience Foxp3/transcription factor staining buffer set (eBioscience Cat No. 00-5523-00)."}, "[2]": {"test_system": "natural killer cells", "assay": "CD107a expression and IFN-g secretion of natural killer cells, flow cytometry", "type": "cell-based, Human", "method": "2.5 μl of FITC-labeled anti-CD107a mAb was added to the cells, and Golgi stop (BD Pharmingen) was added, followed by culture at 37° C. for 5 hours. After completion of culture, PerCPp-labeled CD3 mAb (Biolgend Cat No. 344814 clone SK7) and APC-labeled CD56mAb (Biolegend Cat No. 362504 clone 5.1H11) were added to the cells and allowed to react at 4° C. for 20 minutes. For intracellular FACS, the cells were washed with FACS buffer, fixed, permeabilized using a BD Cytoperm/Cytofix kit (BD Pharmingen, San Diego, CA), stained with PE-labeled IFN-g mAb, and then analyzed by flow cytometry. As a positive control, natural killer cells treated with PMA/ionomycin were used."}, "[3]": {"test_system": "K562 and A375 target cancer cells", "assay": "Cancer cell killing ability of natural killer cells, chromium release", "type": "cell-based, Human", "settings": "K562 and A375 targets, ratio 1:1, 4 hours, versus untreated control (FIG. 4A)", "method": "In order to examine whether the cancer cell killing ability of the natural killer cells expanded ex vivo by the method of Example 1 changes, K562 (Korea Cell Line Bank) and A375 (Korea Cell Line Bank) cells were prepared as target cancer cells, labeled with chromium for 1 hour, mixed with natural killer cells at a ratio of 1:1, and then co-cultured 37° C. After 4 hours, the supernatant was taken and the isotope value thereof was analyzed using a gamma counter."}, "[4]": {"test_system": "natural killer cells", "assay": "Cell counting during ex vivo expansion culture of natural killer cells (hematocytometer)", "type": "cell-based, Human", "method": "Human blood was collected, and then centrifuged using Ficoll (Ficoll-Paque™ PLUS, GE Healthcare) at 2500 rpm for 30 minutes, and peripheral blood mononuclear cells were isolated from the buffy coat. Thereafter, the isolated cells were co-cultured with the Jurkat cell line (Korea Cell Line Bank) and EBV-LCL cell line (Korea Cell Line Bank) (each cell line was irradiated with 100 Gy) at a peripheral blood mononuclear cell:Jurkat cell:EBV-LCL cell ratio of 1:0.5:0.5 in hRPMI medium (RPMI1640 medium (Corning) containing 10% FBS and 1% penicillin/streptomycin) in the presence of 500 U/ml of IL-2. During culture, the medium was replaced with hRPMI medium containing 500 U/ml of IL-2 once every 3 to 4 days.\nIn order to confirm the effect of an HDAC inhibitor on natural killer cells, the natural killer cells cultured for […] under the above-described conditions were treated with 125 nM of an HDAC inhibitor (SAHA, Sigma Aldrich, USA) once every 4 days, and the number of the cells was counted (FIG. 1A). At this time, the number of the cells was counted using a hematocytometer once every 4 days while the cells were further cultured for about 12 days, and during culture, the medium was replaced with hRPMI medium containing 500 U/ml of IL-2."}, "[5]": {"test_system": "natural killer cells", "assay": "Apoptosis by annexin V/7AAD staining, flow cytometry", "type": "cell-based, Human", "settings": "NK cells expanded 10 days, treated, further cultured 8 days (FIG. 3)", "method": "as §1, §2"}, "[6]": {"test_system": "NK cells", "settings": "cited from earlier work"}, "[7]": {"test_system": "NK cells", "settings": "Ogbomo et al., FEBS Letters 2007; cited from earlier work"}}, "note": "Like-named read-outs stand apart in the source and are kept apart here."}
{"smiles": "O=C(CCCCCCC(=O)Nc1ccccc1)NO", "note": "[SAHA]", "values": [{"measurement": "proliferation of the natural killer cells (Ki67)", "setting": "[1]", "value": "did not change"}, {"measurement": "proliferation of the natural killer cells (Ki67)", "setting": "[1]; listed as HDAC inhibitor", "value": "no significant change"}, {"measurement": "interferon-gamma secretion of the cells", "setting": "[2]; co-cultured 10 days, then treated", "value": "did not change"}, {"measurement": "function of the natural killer cells: expression of CD107a and secretion of IFN-g", "setting": "[2]; treated or not treated with the HDAC inhibitor (FIG. 4B)", "value": "no change"}, {"measurement": "cancer cell killing ability of the natural killer cells", "setting": "[3]", "value": "did not change"}, {"measurement": "number of cells compared with control group not treated with the HDAC inhibitor", "setting": "[4]; NK cells cultured 6 days, then 125 nM once every 4 days, further culture about 12 days (FIG. 1B)", "value": "more than double"}, {"measurement": "number of the natural killer cells compared to conventional culture method", "setting": "[4]; PBMC co-cultured with Jurkat and EBV-LCL cells for 10 days, then treated", "value": "increased"}, {"measurement": "proliferation of the NK cells by concentration", "setting": "[4]; concentration of 62.5 nM (FIG. 2B)", "value": "the highest"}, {"measurement": "number of cells", "setting": "[4]; treated at an initial stage without being cultured", "value": "no increase"}, {"measurement": "number of cells by timing of treatment", "setting": "[4]; treated from co-culture day 6 (FIG. 2A)", "value": "the highest"}, {"measurement": "proliferation of the NK cells (growth curve)", "setting": "[4]; treated on day 0 of culture compared to treated on day 10 of culture (FIG. 1C)", "value": "decreased"}, {"measurement": "apoptosis of the natural killer cells (annexin V/7AAD)", "setting": "[5]", "value": "inhibited"}]}
{"smiles": "O=C(CCCCCCC(=O)Nc1ccccc1)NO", "note": "[vorinostat]", "values": [{"measurement": "cancer cell killing ability of the NK cells", "setting": "[6]; activated NK cells, Wang et al., Biol Blood Marrow Transplant 2012", "value": "no change"}]}
{"smiles": "CCCC(CCC)C(=O)O", "note": "[valproic acid]", "values": [{"measurement": "cancer cell killing ability of the NK cells", "setting": "[6]; Ogbomo et al., FEBS Letters 2007", "value": "decreases"}, {"measurement": "proliferation of the NK cells", "setting": "[7]", "value": "decreases"}]}
